Structures are written as SMILES. Read-outs that look alike come from different tables or passages of the source.

In data set [1] the test system is BJAB cells. The data set is described as follows: Effect on BJAB cells growth curve (KSHV negative control cells). It is filed as cell-based, human. The settings on record: six days, 2 mM and 4 mM in alcohol 0.5% and 1%. How it is done: (§1) The Glycyrrhizic acid (as ammonium salt supplied by Sigma) is dissolved in 25% of ethanol at 100 mM and adjusted to pH 6.8 with 1 N sodium hydroxide. The maximum inhibition activity with no effect on cell cycle is achieved with 4 mM, the dose-dependent range is within 2mM to 5mM.
(§2) BJA-B is an Epstein-Barr virus (EBV)-negative lymphoblastoid cell line established from an African Burkift's lymphoma, KSHV negative cell line. See Menezes J, et al, Establishment and characterization of an Epstein-Barr virus (EBV)-negative lymphoblastoid B cell line (BJA-B) from an exceptional, EBV-genome-negative African Burkitt's lymphoma. Biomedicine 1975 Jul; 22 (4): 276-84. These cells are used as controls. Cells are cultured at concentration of 4×10^5/ml in RPMI with 20% of fetal calf serum in the presence or absence of different drug concentrations.
Cells are treated for six days with alcohol 0.5% and 1%, Glycyrrhizic acid 2 mM and 4 mM in alcohol 0.5% and 1% respectively. Glycyrrhizic acid has no effect on the cells proliferation.

Data set [2] deals with BC-3 cells. The data set is described as follows: Effect on BC-3 cells growth curve (latently KSHV-infected). It is filed as cell-based, human. The procedure: as §1
BC-3 is a cell line established from a HIV negative patient with a primary effusion lymphoma. See Arvanitakis L, et al Establishment and characterization of a primary effusion (body cavity-based) lymphoma cell line (BC-3) harboring Kaposi's sarcoma-associated herpesvirus (KSHV/HHV-8) in the absence of Epstein-Barr virus. Blood 88:2648-2654, 1996. The cells are latently KSHV-infected, but lacks EBV, and can be induced to enter lytic replication and viral production by treatment with TPA or with butyrate. BC-3 has an intact KSHV genome and is suitable for the isolation and study of KSHV.
as §2
The cells are treated for six days with alcohol 0.5% and 1%, Glycyrrhizic acid 2 mM and 4 mM in alcohol 0.5% and 1% respectively. Cells growth is 50% inhibited by Glycyrrhizic acid 2 mM, while treatment with Glycyrrhizic acid 4 mM determines cell death.

In data set [3] the test system is BC-1 cells. The data set is described as follows: Effect on BC-1 cells growth curve (KSHV/EBV-infected). The class given is cell-based, human. As to conditions: 6 days. The procedure:
as §1
(§3) BC-1 and BC-2 are cell lines established from two different HIV positive patients with non-Hodgkins lymphoma, specifically body cavity-based lymphomas. The cells are KSHV/EBV-infected and can be induced to enter lytic replication and viral production by treatment with TPA or with butyrate. These cells have an intact KSHV and EBV genomes and are ideal for KSHV and EBV isolation and study.(Cesarman, E. et al., Blood 1995 Oct.;86(7):2708-14.
(§4) The cells are treated for six days with alcohol 1%, glycyrrhizic acid 2 mM […], glycyrrhizic acid 3 mM and 4 mM in alcohol 0.5%, 0.75% and 1% respectively. After 6 days treatment cells growth decreased 50% using glycyrrhizic acid 2 mM and glycyrrhizic acid 3 mM. Cells growth decreased 80% using glycyrrhizic acid 4 mM.

In data set [4] the test system is BC-2 cells. In words: Effect on BC-2 cells growth curve (KSHV/EBV-infected). As to conditions: 6 days. The class given is cell-based, human. How it is done: as §1, §3, §4
Data set [5] has as its system KSHV cyclin, v-FLIP and LANA (orf 73) genes. The data set is described as follows: Northern blot of viral latent genes transcription in BC-3 cells. The class given is cell-based, Kaposi's sarcoma-associated herpesvirus (KSHV). As to conditions: for effect on the viral latent genes transcription: BC-3 cells, six days. The procedure: (§5) Total RNA was extracted using RNAzol B (Tel-Test Inc., Friendswood, Tex.) according to the manufacturer's instructions, and Poly A+RNA was selected with Poly A+ Tract kit (Promega, Madison, Wis.). To eliminate any contaminating DNA, the RNA samples were treated with 2 U RNAse free DNAse (Promega).
(§6) For Northern blot analysis, […] of each mRNA sample was electrophoresed in 1.5% formaldehyde agarose gel and then transferred to a Gene Screen nylon membrane (Du Pont, Boston, Mass.) overnight with 20×SSC. Filters were UV-cross-linked to fix the RNA and hybridized at 42° C. with probes obtained by PCR amplification of KSHV cyclin, v-FLIP and LANA (orf 73) genes (20) and labeled by ^32P random priming (Amersham Life Science, Buckinghamshire, England). Human β-actin probe was used as a quantitative control to measure the total mRNA. Membranes were washed twice at room temperature and twice at 65° C. then exposed.
(§7) On the left side are indicated the probes used. On the right side are indicated the size of the transcripts. All probes correspond to viral latent genes, except the human b actin which is used as a quantitative control to measure the transcription of total cellular mRNA.
(§8) Lane 6 is the positive control.

Data set [6] deals with Human β-actin. The data set is described as follows: Northern blot of β-actin as control for total cellular mRNA transcription. The class given is cell-based. The procedure:
as §5, §6, §7, §8

For data set [7], the system named is KSHV latent antigens. The data set is described as follows: Immunofluorescence assay of BC-3 cells for latent KSHV antigens. The class given is cell-based, Kaposi's sarcoma-associated herpesvirus (KSHV). The settings on record: 4 mM, stained with KS patient serum (panel C). How it is done:
Secondary antibody FITC-conjugated F(ab′)2 fragment of rabbit antihuman IgG (DAKO, Carpinteria, Calif.) diluted 1:40 in MB was applied. Cell nuclei were counterstained for 5 min, in PBS containing 17 μM Dapi (4′-6′-diamino-2′-phenyidole dihydrochloride [Boehringer Mannheim Corp., Indianapolis, Ind.]), rinsed in TBST, mounted with Vectashield (Vector Lab. Inc., Burlingame, Calif.) and examined in a fluorescence microscope Axioplan2 (Zeiss, Germany). BC-3 cells were run in parallel as controls.
In panel C the BC-3 cells have been treated with glycyrrhizic acid 4 mM and stained with KS patient serum. In panel D BC-3 cells have been treated with glycyrrhizic acid 4 mM and stained with Dapi to localize the nuclei. Kaposi's Sarcoma patient serum is used primary antibody to stain the KSHV latent antigens.

The conditions of data set [8]: cited from earlier work.

Regarding `CC1(C)[C@@H](O[C@H]2O[C@H](C(=O)O)[C@@H](O)[C@H](O)[C@H]2O[C@@H]2O[C@H](C(=O)O)[C@@H](O)[C@H](O)[C@H]2O)CC[C@]2(C)[C@H]3C(=O)C=C4[C@@H]5C[C@@](C)(C(=O)O)CC[C@]5(C)CC[C@@]4(C)[C@]3(C)CC[C@@H]12` [Glycyrrhizic acid], the “effect on the cells proliferation” value in data set [1] is listed as “no effect”. Also, the “effect on cells growth” value in data set [2] (BC-3 cells, six days, 4 mM) is listed as “cell death”. Besides, the inhibition at 2000 µM in data set [2] (Homo sapiens, 144 h, BC-3 cells, six days, 2 mM, read-out: cells growth inhibited) is 50%. In addition, the “KSHV infected cells killed” value in data set [2] (six days after treatment) is reported as “completely killed”. For the same compound, the cells growth decreased came out at 50% in data set [3] (2 mM); 50% in data set [3] (3 mM); 80% in data set [3] (4 mM); 50% in data set [4] (2 mM); 50% in data set [4] (3 mM); 80% in data set [4] (4 mM). The “concentration of maximum inhibition activity with no effect on cell cycle” value in data set [5] turned out to be 4 mM. Also, the “effect on the viral latent genes transcription” value is given as “does not show any effect” in data set [5] (2 mM (lane 7)) and “almost totally inhibited” in data set [5] (4 mM (lane 8)). In data set [6] (BJA-B cells, six days, 2 mM and 4 mM (lanes 1-5)), the “transcription of total cellular mRNA (b actin)” value is “not inhibited”. In data set [6] (all samples, BJA-B and BC-3), the “effect on cellular mRNA (β actin)” value is recorded as “does not have any effect”. In addition, the “expression of latent viral antigens” value in data set [7] is recorded as “inhibits the expression of latent viral antigens”. Moreover, in data set [8] (hot water and alcohol), the solubility result is “freely soluble”.

As to `CC1(C(=O)O)CCC2(C)CCC3(C)C(=CC(=O)C4C5(C)CCC(OC6OC(C(=O)O)C(O)C(O)C6OC6OC(C(=O)O)C(O)C(O)C6O)C(C)(C)C5CCC43C)C2C1.N.O.O.O.O.O` (stereo not drawn) [Ammonium glycyrrhizinate pentahydrate], the solubility result in data set [8] (ammonia water, ethanol, glacial acetic acid) was “soluble”.

Source of the values: patent publication US20020091158A1, “Composition for and method of treatment using triterpenoids” (priority 1999, published 2002).
